Test results published in the NIST ThermoML archive (doi:10.1016/j.jct.2012.07.007).

What was measured:
[1] = excess molar enthalpy (molar enthalpy of mixing); xn = mol fraction of the nth substance listed; settings: 298.15 K, 101 kPa, Liquid, 2-drop calorimetry
[2] = xn = mol fraction of the nth substance listed; settings: 101 kPa, Liquid; for speed of sound: Linear variable-path acoustic interferometer; for mass density: Vibrating tube method

Cc1ccccn1 [2-methylpyridine] + CCn1cc[n+](C)c1.F[B-](F)(F)F
[1]
Settings	excess molar enthalpy [kcal/mol]
x2 = 0.1132	-0.0261
x2 = 0.1578	-0.0354
x2 = 0.2087	-0.0464
x2 = 0.2467	-0.0538
x2 = 0.2976	-0.0636
x2 = 0.3245	-0.0684
x2 = 0.3789	-0.078
x2 = 0.4235	-0.0852
x2 = 0.4876	-0.0945
x2 = 0.5123	-0.0976
x2 = 0.5734	-0.104
x2 = 0.6145	-0.107
x2 = 0.6634	-0.108
x2 = 0.7145	-0.104
x2 = 0.7856	-0.0953
x2 = 0.8265	-0.086
x2 = 0.8723	-0.0727
x2 = 0.9226	-0.05

[2]
Settings	mass density, 293.15 K [kg/m3]	mass density, 298.15 K [kg/m3]	mass density, 303.15 K [kg/m3]	mass density, 308.15 K [kg/m3]	speed of sound, 293.15 K [m/s]	speed of sound, 298.15 K [m/s]	speed of sound, 303.15 K [m/s]	speed of sound, 308.15 K [m/s]
x2 = 0.1219	1013.9	1010.93	1006.33	1002.14	1438.3	1415.5	1397.7	1379.6
x2 = 0.1776	1043.45	1040.53	1036.16	1032.07	1457.5	1434.8	1417.2	1400
x2 = 0.2341	1071.82	1068.69	1064.53	1060.5	1478.2	1454.8	1438.3	1422
x2 = 0.2778	1092.45	1089.12	1085.1	1081.18	1494.2	1471	1454.4	1439.1
x2 = 0.3209	1111.76	1108.07	1104.33	1100.37	1509.3	1487.7	1470.8	1455.6
x2 = 0.3721	1133.09	1129.16	1125.57	1121.65	1527.3	1506.4	1490.5	1475.5
x2 = 0.4232	1152.77	1148.64	1145.21	1141.21	1544.8	1525.5	1509	1495
x2 = 0.4727	1170.31	1166.05	1162.72	1158.68	1560	1542.7	1525.2	1513.6
x2 = 0.5217	1186.07	1181.95	1178.63	1174.56	1572.9	1557.7	1540.6	1530.3
x2 = 0.5742	1201.42	1197.47	1194.21	1190.05	1585.5	1572.9	1555.3	1545.9
x2 = 0.6217	1214.02	1210.21	1206.93	1202.85	1595.6	1585	1567.5	1559
x2 = 0.6724	1226.14	1222.71	1219.36	1215.15	1603.9	1596.5	1577.8	1571.1
x2 = 0.7228	1236.96	1233.88	1230.44	1226.27	1609.8	1605.1	1586.2	1581.5
x2 = 0.7725	1246.69	1243.95	1240.41	1236.19	1614.7	1611.1	1592.1	1589
x2 = 0.8216	1255.54	1252.96	1249.32	1245.1	1618.6	1615.5	1596.9	1593.8
x2 = 0.8741	1264.27	1261.73	1257.98	1253.82	1621.8	1618.7	1600.8	1597.4
x2 = 0.9218	1271.82	1269.01	1265.26	1261.08	1624.6	1619.8	1603.5	1598.2
x2 = 0.9319	1273.41	1270.5	1266.74	1262.57	1625.3	1619.6	1604	1598.3

Cc1ccncc1 [4-methylpyridine] + CCn1cc[n+](C)c1.F[B-](F)(F)F
[1]
Settings	excess molar enthalpy [kcal/mol]
x2 = 0.111	-0.0311
x2 = 0.1679	-0.0454
x2 = 0.2098	-0.0558
x2 = 0.2387	-0.0624
x2 = 0.2909	-0.0731
x2 = 0.3267	-0.0788
x2 = 0.379	-0.0873
x2 = 0.4167	-0.0925
x2 = 0.4834	-0.0997
x2 = 0.5267	-0.104
x2 = 0.5908	-0.106
x2 = 0.615	-0.106
x2 = 0.6786	-0.101
x2 = 0.7234	-0.0974
x2 = 0.7945	-0.0841
x2 = 0.8346	-0.0723
x2 = 0.889	-0.0539
x2 = 0.9267	-0.0389

[2]
Settings	mass density, 293.15 K [kg/m3]	mass density, 298.15 K [kg/m3]	mass density, 303.15 K [kg/m3]	mass density, 308.15 K [kg/m3]	speed of sound, 293.15 K [m/s]	speed of sound, 298.15 K [m/s]	speed of sound, 303.15 K [m/s]	speed of sound, 308.15 K [m/s]
x2 = 0.1211	1022.19	1017.25	1012.54	1008.4	1485	1464.4	1448.9	1428.2
x2 = 0.1734	1048.92	1043.93	1039.26	1035.43	1499.5	1479.3	1464.5	1443.7
x2 = 0.2215	1072.35	1067.26	1062.71	1059.13	1512.2	1492.7	1478.1	1457.6
x2 = 0.2738	1096.49	1091.32	1086.94	1083.63	1525	1506.5	1492.3	1472.9
x2 = 0.3226	1117.74	1112.6	1108.38	1105.18	1536.7	1519.3	1505.1	1486.3
x2 = 0.3709	1137.61	1132.52	1128.45	1125.39	1548	1531.8	1517.3	1499.9
x2 = 0.4215	1157.13	1152.2	1148.31	1145.11	1558.7	1543.8	1529.7	1514.7
x2 = 0.4721	1175.31	1170.56	1166.92	1163.65	1568.6	1554.4	1541.8	1528.9
x2 = 0.5207	1191.56	1186.91	1183.59	1180.05	1576.9	1564.8	1553	1542.6
x2 = 0.5728	1207.52	1203.15	1200.15	1196.14	1585.7	1573.8	1564.2	1557.1
x2 = 0.6218	1221.15	1217.12	1214.3	1209.95	1593.2	1582.3	1574.8	1570.3
x2 = 0.6731	1234.15	1230.36	1227.81	1222.97	1600.4	1589.4	1585.1	1582.7
x2 = 0.7224	1245.2	1241.78	1239.32	1234.16	1607	1595.7	1594.6	1593.7
x2 = 0.7743	1255.49	1252.28	1249.84	1244.37	1613	1601.8	1602.4	1603.4
x2 = 0.8203	1263.45	1260.27	1257.85	1252.23	1617.3	1606.3	1608.5	1609.8
x2 = 0.8717	1270.96	1267.85	1265.24	1259.65	1622.3	1610.6	1612.2	1612.8
x2 = 0.9111	1275.81	1272.56	1269.8	1264.37	1625.3	1613.4	1613.3	1611.5
x2 = 0.9312	1278	1274.64	1271.69	1266.47	1626.7	1614.9	1613.3	1609.7
